Converted amounts (≈) assume the structure as drawn.
Tests used:
[1] = test system: Sal. paratyphi ATCC 12176; experiment: Minimum inhibitory concentration (MIC); format: cell-based; conditions: Salmonella enterica
[2] = test system: E. coli; experiment: In vivo ED50 in infected mice, oral; conditions: Escherichia coli, in Mus musculus
[3] = test system: Kleb. pneumonia; experiment: In vivo ED50 in infected mice, oral; conditions: Mus musculus
[4] = test system: S. aureus HH 127; experiment: Minimum inhibitory concentration (MIC); conditions: Staphylococcus aureus, HH127
[5] = test system: S. aureus SK 23390; experiment: Minimum inhibitory concentration (MIC); conditions: Staphylococcus aureus, SK23390
[6] = test system: Strep. pyog. C203; experiment: Minimum inhibitory concentration (MIC)
[7] = test system: Strep. faecalis HH 34358; experiment: Minimum inhibitory concentration (MIC); conditions: Enterococcus faecalis, HH34358
[8] = test system: E. coli SK 12140; experiment: Minimum inhibitory concentration (MIC); conditions: Escherichia coli, SK12140
[9] = test system: E. coli HH 33779; experiment: Minimum inhibitory concentration (MIC); conditions: Escherichia coli, HH33779
[10] = test system: Kleb. pneumo. SK 4200; experiment: Minimum inhibitory concentration (MIC)
[11] = test system: Kleb. pneumo. SK 1200; experiment: Minimum inhibitory concentration (MIC)
[12] = test system: Pseudomonas sp. HH 63; experiment: Minimum inhibitory concentration (MIC); conditions: SP.HH63
[13] = test system: Entero. aerogenes ATCC13048; experiment: Minimum inhibitory concentration (MIC); conditions: Klebsiella aerogenes
[14] = test system: Serrantia marcescens ATCC 13880; experiment: Minimum inhibitory concentration (MIC)
[15] = test system: Staph. aurcus villaluz; experiment: Minimum inhibitory concentration (MIC)
[16] = test system: E. coli SK 12140; experiment: In vivo ED50 in infected mice, subcutaneous; conditions: Escherichia coli, SK12140, in Mus musculus, sc
[17] = test system: Kleb. pneumo. SK 4200; experiment: In vivo ED50 in infected mice, subcutaneous; conditions: Mus musculus, sc
[18] = Stability in solution; format: physicochemical; conditions: neutral or basic pH, vs any prior art compounds that were tested
[19] = Stability to copper ion; format: physicochemical; conditions: vs tested prior art compounds
[20] = test system: Entero. cloaca Pa.S.L.969; experiment: Minimum inhibitory concentration (MIC)
[21] = test system: Shig. paradys. HH 127; experiment: Minimum inhibitory concentration (MIC)

Compound	MIC [1]	MIC [4]	MIC [5]	MIC [6]	MIC [7]	MIC [8]	MIC [9]	MIC [10]	MIC [11]	MIC [12]	MIC [13]	MIC [14]	MIC [15]	ED50 [16]	ED50 [17]	MIC [20]	other results
NC(C(=O)NC1C(=O)N2C(C(=O)O)=C(CSc3n[nH]c(=O)[nH]3)CSC12)c1ccc(O)cc1 (stereo not shown) [Compound IV]	6.3 µg/mL (≈ 13.2 µM)	6.3 µg/mL (≈ 13.2 µM)	6.3 µg/mL (≈ 13.2 µM)	0.1 µg/mL (≈ 0.209 µM)	100 µg/mL (≈ 209 µM)	6.3 µg/mL (≈ 13.2 µM)	25 µg/mL (≈ 52.2 µM)	6.3 µg/mL (≈ 13.2 µM)	12.5 µg/mL (≈ 26.1 µM)	> 200 µg/mL	12.5 µg/mL (≈ 26.1 µM)	> 200 µg/mL	25 µg/mL (≈ 52.2 µM)	4 mg/kg	2.8 mg/kg	–	ED50 [2]: 9.5 mg/kg; ED50 [3]: 6.2 mg/kg
NC(C(=O)NC1C(=O)N2C(C(=O)O)=C(CSc3n[nH]c(=O)[nH]3)CSC12)c1ccccc1 (stereo not shown) [Compound I]	1.6 µg/mL (≈ 3.46 µM)	1.6 µg/mL (≈ 3.46 µM)	1.6 µg/mL (≈ 3.46 µM)	0.1 µg/mL (≈ 0.216 µM)	50 µg/mL (≈ 108 µM)	3.1 µg/mL (≈ 6.7 µM)	6.3 µg/mL (≈ 13.6 µM)	3.1 µg/mL (≈ 6.7 µM)	3.1 µg/mL (≈ 6.7 µM)	> 200 µg/mL	6.3 µg/mL (≈ 13.6 µM)	200 µg/mL (≈ 432 µM)	12.5 µg/mL (≈ 27 µM)	2.9 mg/kg	7 mg/kg	12.5 µg/mL (≈ 27 µM)	stability in solution [18]: more stable in solution at neutral or basic pH than any prior art compounds that were tested; stability to copper ion [19]: greater stability to copper ion than tested prior art compounds
CCn1c(SCC2=C(C(=O)O)N3C(=O)C(NC(=O)C(N)c4ccccc4)C3SC2)n[nH]c1=O (stereo not shown) [III]	3.1 µg/mL (≈ 6.32 µM)	3.1 µg/mL (≈ 6.32 µM)	3.1 µg/mL (≈ 6.32 µM)	0.1 µg/mL (≈ 0.204 µM)	25 µg/mL (≈ 51 µM)	12.5 µg/mL (≈ 25.5 µM)	12.5 µg/mL (≈ 25.5 µM)	6.3 µg/mL (≈ 12.8 µM)	6.3 µg/mL (≈ 12.8 µM)	> 200 µg/mL	25 µg/mL (≈ 51 µM)	200 µg/mL (≈ 408 µM)	25 µg/mL (≈ 51 µM)	29 mg/kg	92 mg/kg	25 µg/mL (≈ 51 µM)	–
Cn1c(SCC2=C(C(=O)O)N3C(=O)C(NC(=O)C(N)c4ccccc4)C3SC2)n[nH]c1=O (stereo not shown) [II]	3.1 µg/mL (≈ 6.51 µM)	6.3 µg/mL (≈ 13.2 µM)	3.1 µg/mL (≈ 6.51 µM)	0.1 µg/mL (≈ 0.21 µM)	50 µg/mL (≈ 105 µM)	12.5 µg/mL (≈ 26.2 µM)	25 µg/mL (≈ 52.5 µM)	6.3 µg/mL (≈ 13.2 µM)	6.3 µg/mL (≈ 13.2 µM)	> 200 µg/mL	25 µg/mL (≈ 52.5 µM)	> 200 µg/mL	25 µg/mL (≈ 52.5 µM)	12.5 mg/kg	11.5 mg/kg	50 µg/mL (≈ 105 µM)	–
O=C(Cc1cccs1)N[C@@H]1C(=O)N2C(C(=O)[O-])=C(C[n+]3ccccc3)CS[C@H]12 [S-I, cephaloridine, reference compound]	1.6 µg/mL (≈ 3.85 µM)	0.4 µg/mL (≈ 0.963 µM)	0.1 µg/mL (≈ 0.241 µM)	0.1 µg/mL (≈ 0.241 µM)	6.3 µg/mL (≈ 15.2 µM)	3.1 µg/mL (≈ 7.46 µM)	6.3 µg/mL (≈ 15.2 µM)	3.1 µg/mL (≈ 7.46 µM)	3.1 µg/mL (≈ 7.46 µM)	> 200 µg/mL	> 200 µg/mL	> 200 µg/mL	12.5 µg/mL (≈ 30.1 µM)	6 mg/kg	7.6 mg/kg	> 200 µg/mL	MIC [21]: 1.6 µg/mL (≈ 3.85 µM)
CC1=C(C(=O)O)N2C(=O)[C@@H](NC(=O)[C@H](N)c3ccccc3)[C@H]2SC1 [S-II, cephalexin, reference compound]	3.1 µg/mL (≈ 8.92 µM)	3.1 µg/mL (≈ 8.92 µM)	1.6 µg/mL (≈ 4.61 µM)	0.1 µg/mL (≈ 0.288 µM)	50 µg/mL (≈ 144 µM)	6.3 µg/mL (≈ 18.1 µM)	6.3 µg/mL (≈ 18.1 µM)	6.3 µg/mL (≈ 18.1 µM)	3.1 µg/mL (≈ 8.92 µM)	> 200 µg/mL	12.5 µg/mL (≈ 36 µM)	50 µg/mL (≈ 144 µM)	50 µg/mL (≈ 144 µM)	12 mg/kg	25 mg/kg	6.3 µg/mL (≈ 18.1 µM)	–
O=C(O)C1=C(CSc2n[nH]c(=S)s2)CSC2C(NC(=O)C(O)c3ccccc3)C(=O)N12 (stereo not shown) [VII]	0.8 µg/mL (≈ 1.61 µM)	0.8 µg/mL (≈ 1.61 µM)	0.4 µg/mL (≈ 0.805 µM)	0.2 µg/mL (≈ 0.403 µM)	25 µg/mL (≈ 50.3 µM)	1.6 µg/mL (≈ 3.22 µM)	3.1 µg/mL (≈ 6.24 µM)	1.6 µg/mL (≈ 3.22 µM)	0.8 µg/mL (≈ 1.61 µM)	> 200 µg/mL	12.5 µg/mL (≈ 25.2 µM)	200 µg/mL (≈ 403 µM)	12.5 µg/mL (≈ 25.2 µM)	21.5 mg/kg	64 mg/kg	–	–
Cn1c(SCC2=C(C(=O)O)N3C(=O)C(NC(=O)C(O)c4ccccc4)C3SC2)n[nH]c1=O (stereo not shown) [VI]	3.1 µg/mL (≈ 6.49 µM)	1.6 µg/mL (≈ 3.35 µM)	0.4 µg/mL (≈ 0.838 µM)	0.1 µg/mL (≈ 0.209 µM)	25 µg/mL (≈ 52.4 µM)	6.3 µg/mL (≈ 13.2 µM)	12.5 µg/mL (≈ 26.2 µM)	–	3.1 µg/mL (≈ 6.49 µM)	> 200 µg/mL	12.5 µg/mL (≈ 26.2 µM)	> 200 µg/mL	12.5 µg/mL (≈ 26.2 µM)	9 mg/kg	21 mg/kg	–	–
O=C(O)C1=C(CSc2n[nH]c(=O)[nH]2)CSC2C(NC(=O)C(O)c3ccccc3)C(=O)N12 (stereo not shown) [V]	1.6 µg/mL (≈ 3.45 µM)	0.8 µg/mL (≈ 1.73 µM)	0.4 µg/mL (≈ 0.863 µM)	0.1 µg/mL (≈ 0.216 µM)	50 µg/mL (≈ 108 µM)	3.1 µg/mL (≈ 6.69 µM)	6.3 µg/mL (≈ 13.6 µM)	3.1 µg/mL (≈ 6.69 µM)	1.6 µg/mL (≈ 3.45 µM)	> 200 µg/mL	12.5 µg/mL (≈ 27 µM)	> 200 µg/mL	25 µg/mL (≈ 53.9 µM)	4 mg/kg	8.7 mg/kg	12.5 µg/mL (≈ 27 µM)	–
